Converted amounts (≈) assume the structure as drawn. Read-outs that look alike come from different tables or passages of the source.
What was measured:
zebrafish embryos [1] = details: 24-well plate
zebrafish embryos [2] = assay: animal or person; details: Danio rerio, 2 h, read-out: absolute EC50 (50% effective concentration), tail curvature
zebrafish embryos [3] = details: for EC50: Danio rerio, 2 h

Cn1c(=O)c2c(ncn2C)n(C)c1=O [caffeine]
frequency of tail curvature (scoliosis) (zebrafish embryos [1]; after 2-hour caffeine treatment): concentration dependent
recovery of embryos with tail curvature (zebrafish embryos [1]; after 24 hours culturing in E3 buffer): recovered to normal
zebrafish embryo survival rate at the end of the experiment (zebrafish embryos [1]; all caffeine concentrations 0.0325-2 mg/mL, 2-hour treatment and 24-hour recovery): over 90%
EC50 (zebrafish embryos [2]): 690 µg/mL (≈ 3.56 mM)
zebrafish embryo survival rate (zebrafish embryos [3]; CGG, 2-hour treatment and 24-hour recovery, compared with well plate): close to the zebrafish embryo tested in the well plate
hillslope of dose-response curves, tail curvature (zebrafish embryos [3]; CGG, 3 gradients, 2-hour treatment, compared with well plate): greater than the hillslope of well plate-based dose-response curves
overall frequency of edema occurrences (zebrafish embryos [3]; CGG, after 24-hour recovery at 2 ml/min, compared with well plate): significantly higher in the CGG than in the well plate
EC50 (zebrafish embryos [3]; read-out: absolute EC50, tail curvature, CGG, measured concentrations (trypan blue intensity), highest inner wall inlet flowrate (150 μl/min), outer wall 300 μl/min, 2-hour treatment): 987 µg/mL (≈ 5.08 mM)
EC50 (zebrafish embryos [3]; read-out: absolute EC50, tail curvature, CGG, measured concentrations (trypan blue intensity), lowest inner wall inlet flowrate (75 μl/min), outer wall 300 μl/min, 2-hour treatment): 993 µg/mL (≈ 5.11 mM)
EC50 (zebrafish embryos [3]; read-out: absolute EC50, tail curvature, CGG, measured concentrations (trypan blue intensity), middle inner wall inlet flowrate (100 μl/min), outer wall 300 μl/min, 2-hour treatment): 1080 µg/mL (≈ 5.56 mM)
EC50 (zebrafish embryos [3]; read-out: absolute EC50, tail curvature, CGG, simulated concentrations, highest inner wall inlet flowrate (150 μl/min), outer wall 300 μl/min, 2-hour treatment): 1210 µg/mL (≈ 6.22 mM)
EC50 (zebrafish embryos [3]; read-out: absolute EC50, tail curvature, CGG, simulated concentrations, lowest inner wall inlet flowrate (75 μl/min), outer wall 300 μl/min, 2-hour treatment): 1180 µg/mL (≈ 6.05 mM)
EC50 (zebrafish embryos [3]; read-out: absolute EC50, tail curvature, CGG, simulated concentrations, middle inner wall inlet flowrate (100 μl/min), outer wall 300 μl/min, 2-hour treatment): 1220 µg/mL (≈ 6.28 mM)
